The subject of data set [1] is Dengue subgenomic replicons. Briefly: Anti-DENV activity in BHK cells containing Dengue subgenomic replicons. It is filed as cell-based, Dengue virus.
In another data set the test system is Modoc (MODV) strain M544. The format is cell-based, Modoc virus. Particulars: read-out: EC50, anti-MODV, virus yield reduction assay.
Data set [2] concerns TBEV strain Oshima 5-10. The format is cell-based, Tick-borne encephalitis virus.
Data set [3] has as its system Bovine viral diharrea virus (BVDV). It is filed as cell-based. To be noted: read-out: concentration required to achieve 50% protection from BVDV induced cytopathogenicity.
Data set [4] relates to JEV strain SA-14. The format is cell-based, Japanese encephalitis virus. Particulars: read-out: EC50, JEV, virus yield assay.
Data set [5] has as its system Yellow fever virus (YFV) 17D vaccine strain. It is filed as cell-based. To be noted: read-out: EC50, anti-YFV, CPE reduction assay.
Data set [6] relates to JEV strain SA-14. It is filed as cell-based, Japanese encephalitis virus.
The conditions of data set [7]: previous studies, Guzzo C A et al. 2002; cited from earlier work.
The subject of data set [8] is Respiratory Syncytial Virus (RSV). It is filed as cell-based. To be noted: read-out: concentration required to reduce the plaque number by 50%, RSV.
For data set [9], the system named is YFV. The format is cell-based, Yellow fever virus. To be noted: read-out: EC50, anti-YFV, virus yield reduction assay.
The subject of data set [10] is TBEV strain Oshima 5-10. It is filed as cell-based, Tick-borne encephalitis virus. Particulars: read-out: EC50, TBEV, virus yield assay.
In data set [11] the test system is Dengue virus (DENV) serotype 2 New Guinea C (NGC) strain. It is filed as cell-based. Particulars: read-out: EC50, anti-DENV, virus yield reduction assay.
In data set [12] the test system is BHK cells (Hamster normal kidney fibroblast).
The test system of data set [13] is VERO-76 (Monkey normal kidney) monolayers.
The test system of data set [14] is Vesicular Stomatitis Virus (VSV). The format is cell-based. To be noted: read-out: concentration required to reduce the plaque number by 50%, VSV.
The next data set has as its system Herpesvirus 1 (HSV-1). It is filed as cell-based. To be noted: read-out: concentration required to reduce the plaque number by 50%, HSV-1.
Data set [15] concerns Coxsackievirus B2 (CVB-2). It is filed as cell-based. To be noted: read-out: concentration required to reduce the plaque number by 50%, CVB-2.
The next data set deals with Reovirus-1 (Reo-1). The format is cell-based. To be noted: read-out: concentration required to achieve 50% protection from Reovirus-1 induced cytopathogenicity.
A further data set deals with Poliovirus 1 (Sb-1). The format is cell-based. Particulars: read-out: concentration required to reduce the plaque number by 50%, Sb-1.
Another data set concerns Vaccinia Virus (VV). The format is cell-based. To be noted: read-out: concentration required to reduce the plaque number by 50%, VV.
For data set [16], the system named is MDBK (Bovine normal kidney) cells.
For another data set, the system named is DENV type 1. Particulars: rhesus monkeys infected with DENV type 1, therapeutic and prophylactic protocols; cited from earlier work.
Data set [17] has as its system YFV. Particulars: rhesus monkey, in vivo; cited from earlier work.

Where “and” joins values, the source holds several entries; their conditions need not be identical. Equal entries are not always repeated. Where two headings read alike, the source gives them in different places.

The text below walks through data of patent publication US8741856B2, “Avermectins and milbemycins for the treatment, prevention or amelioration of flavivirus infections” (priority 2009, dated 2014).

As for ivermectin, in data set [1], the “anti-DENV activity in replicon cells” value was “possess anti-DENV activity”. For the same molecule, the EC50 is 0.73 µM in the data set on Modoc (MODV) strain M544; 0.2 µM in the data set on TBEV strain Oshima 5-10 [2] (read-out: EC50, TBEV, viral titer reduction assay); 0.2 µM with TBEV strain Oshima 5-10 [2] (read-out: EC50, TBEV, viral titration on BHK21 cells); around 1.5 µM in [3]; 0.1 to 1 µM with JEV strain SA-14 [4]; 0.0074 µM and 0.0103 µM in data set [5]. Also, the EC50 in the data set on JEV strain SA-14 [6] (read-out: EC50, JEV, viral titer reduction assay) was 0.3 µM; in the data set on JEV strain SA-14 [6] (read-out: EC50, JEV, viral titration on BHK21 cells) it was 0.3 µM; in [8] it was above 6 µM; in the data set with YFV [9], 0.0049 µM; in the data set with TBEV strain Oshima 5-10 [10], 0.1 to 1 µM; in [11] it was 0.71 µM. Further, the EC50 was above 6 µM in [14]; above 6 µM in the data set with Herpesvirus 1 (HSV-1); above 6 µM in data set [15]; above 1.5 µM with Reovirus-1 (Reo-1); above 6 µM in the data set on Poliovirus 1 (Sb-1); above 6 µM in the data set with Vaccinia Virus (VV). Further, the “dose that can be safely employed” value in data set [7] is on record as “up to 10 times the highest FDA-approved dose of 200 μg/kg”. Moreover, the “concentration required to reduce the viability of BHK monolayers by 50%” value in data set [12] was found to be 1.5 µM. Besides, in [13], the “concentration required to reduce the viability of VERO 76 monolayers by 50%” value was 6 µM. Moreover, the “concentration required to reduce the viability of MDBK cells by 50%” value in data set [16] turned out to be 11 µM.

As for `NC(=O)c1ncn([C@@H]2O[C@H](CO)[C@@H](O)[C@H]2O)n1` [ribavirin, 1-beta-D-ribofuranosyl-1,2,4-triazole-3-carboxamide], the “effect on viremia or survival” value in the data set on DENV type 1 and with YFV [17] was “no effect on viremia or survival was observed” throughout.
